Experimental data published in patent publication US10131679B2, “Substituted dihydropyrrolopyrazole compound” (UBE INDUSTRIES, LTD., priority 2014, dated 2018).

How the values were obtained:
[1] = test system: Human keratinocytes (NHEK-Neo Pooled); test: Human keratinocyte growth inhibition assay; format: cell-based; conditions: 48 h, culture for 2 days, Cell Counting Kit-8
Description: Human Keratinocyte Growth Inhibition Assay
The measurement of a human keratinocyte growth inhibitory effect was carried out by modifying the method of Schafer et al. (British Journal of Pharmacology, 159, 842 (2011)).
Human keratinocytes (NHEK-Neo Pooled, manufactured by Lonza Group AG, Cat. No. 00192906) were cultured in KGM-Gold Bullet Kit (manufactured by Lonza Group AG, Cat. No. 00192060) and inoculated at 2.0×10^3 cells/well to a 96-well plate. After overnight culture in a carbon dioxide incubator, a test compound dissolved in DMSO (final DMSO concentration: 0.1%) was added and left standing in a carbon dioxide incubator. After culture for 2 days, the absorbance thereof was measured by using Cell Counting Kit-8 (343-07623 manufactured by Dojindo Laboratories)).
(§1) The rate of inhibition of cell growth at each concentration was calculated from the test compound concentration and the absorbance of Cell Counting Kit-8, and the concentration of the test compound necessary for inhibiting 50% of cell growth (IC50 value) was calculated by using EXSUS (version 8.0.0 or version 8.0.1, manufactured by CAC Exicare Corp.).

[2] = test system: IL-6 production in rat adjuvant arthritis model; test: IL-6 production inhibition test in rat adjuvant arthritis model; format: in vivo, LEW rats; conditions: single dose, left ankle, read-out: rate of inhibition of IL-6 production; for inhibition in vivo at 10 mg/kg: administration of 10 mg/kg; for inhibition in vivo at 3 mg/kg: administration of 3 mg/kg
Description: IL-6 Production Inhibition Test in Rat Adjuvant Arthritis Model
A single-dose drug efficacy test using rat adjuvant arthritis models was carried out by modifying the method of Magari. K et al. (J. Rheumatol. 30 (10), 2193 (2003)).
LEW rats (female, supplied by Charles River Laboratories Japan, Inc.) were used as laboratory animals. An adjuvant prepared from heat-killed bacteria of Mycobacterium butyricum (264010 manufactured by Difco Laboratories Ltd.) and liquid paraffin (manufactured by Wako Pure Chemical Industries, Ltd., Code No. 128-04375) was subcutaneously administered as a phlogogenic material to the right hind leg footpads of the rats under inhalation anesthesia with isoflurane (manufactured by Wako Pure Chemical Industries, Ltd., Code No. 099-06571) to prepare arthritis models. Approximately 2 weeks later, left paw edema was measured with a paw volume meter (model TK-101CMP manufactured by Unicorn Co., Ltd.), and grouping was performed such that the average volume of left paw edema was equal among groups. A test compound or only a solvent was administered, after a certain time, they were sacrificed by exsanguination from the abdomens under isoflurane anesthesia, and the left ankles were collected, chopped, and frozen by using liquid nitrogen. The collected left ankle portions were disrupted in CRYOPress (model CP-100WP manufactured by Microtec Co., Ltd.), then supplemented with a buffer solution, shaken overnight at 4° C., and then centrifuged to collected a supernatant. The preparation of the buffer solution was performed by mixing a Tris buffer solution (pH 7.4), sodium chloride (NaCl), phenyl methyl sulfonyl fluoride (PMSF), Triton X-100, EDTA-free complete tablets (manufactured by F. Hoffmann-La Roche, Ltd., REF. 11 873 580 001), and Otsuka distilled water (manufactured by Otsuka Pharmaceutical Co., Ltd., product No. 1323). IL-6 in the collected supernatant was measured by using a sandwich ELISA kit (manufactured by R&D Systems, Inc., Catalog No. S6050).
The IL-6 content of each sample was calculated from the calibration curve of Standard IL-6 included in the kit. When the amount of IL-6 produced in the solvent administration control group was defined as 100%, the rate of inhibition of IL-6 production (%) at each dose of the test compound was calculated.

[3] = test system: human breast cancer cell line (MCF-7); test: Human breast cancer (MCF-7) cell growth inhibition test; format: cell-based; conditions: MCF7, 72 h, MCF-7, culture for 3 days, sulforhodamine B absorbance
Description: Human Breast Cancer (MCF-7) Cell Growth Inhibition Test
The measurement of a human breast cancer cell growth inhibitory effect was carried out by modifying the method of Simak et al. (Cancer Research, 69, 6208 (2009)).
A human breast cancer cell line (MCF-7) manufactured by DS Pharma Biomedical Co., Ltd., Cat. No. EC86012803, was cultured in MEM (manufactured by GIBCO/Thermo Fisher Scientific, Inc., REF. 11095-080) medium containing 10% FBS (manufactured by GIBCO/Thermo Fisher Scientific, Inc., REF. 10082-147), nonessential amino acids (manufactured by GIBCO/Thermo Fisher Scientific, Inc., REF. 11140-050), and 1% penicillin/streptomycin/amphotericin B (manufactured by GIBCO/Thermo Fisher Scientific, Inc., REF. 15240-096) and inoculated at 3.0×10^3 cells/well to a 96-well plate (manufactured by Corning Inc., REF. 353072). After overnight culture in a carbon dioxide incubator, it was replaced with a fresh MEM medium containing 10% FBS, nonessential amino acids, and 1% penicillin/streptomycin/amphotericin B on the next day, and a test compound dissolved in DMSO (manufactured by Wako Pure Chemical Industries, Ltd., Code No. 043-07216) (final DMSO concentration: 0.1%) was added and left standing in a carbon dioxide incubator. After culture for 3 days, the absorbance of each well was measured by using In Vitro Toxicology Assay Kit Sulforhodamine B based (manufactured by Sigma-Aldrich Co. LLC., Pcode 1001910706).
as §1, with “sulforhodamine B,” for “Cell Counting Kit-8,”

Compound: CC(C)(CO)C(NC(=O)N1Cc2c(NC(=O)C3([Si](C)(C)C)CCC3)n[nH]c2C1(C)C)c1ccccc1 (racemic) [IV-354, N-(3-Hydroxy-2,2-dimethyl-1-phenylpropyl)-6,6-dimethyl-3-[1-(trimethylsilyl)cyclobutanecarboxamido]-4,6-dihydropyrrolo[3,4-c]pyrazole-5(1H)-carboxamide]
- IC50 [1]: ≤ 500 nM

Compound: CC1(C)c2[nH]nc(NC(=O)C(C)(C)[Si](C)(C)C)c2CN1C(=O)N[C@H](CO)c1ccccc1 [II-114, (S)—N-(2-Hydroxy-1-phenylethyl)-6,6-dimethyl-3-[2-methyl-2-(trimethylsilyl)propanamido]-4,6-dihydropyrrolo[3,4-c]pyrazole-5(1H)-carboxamide]
- inhibition in vivo at 10 mg/kg [2]: ≥ 50%

Compound: CC1(C)c2[nH]nc(NC(=O)C3([Si](C)(C)C)CCC3)c2CN1C(=O)O[C@H](CO)c1ccccc1 [IV-2, (S)-2-Hydroxy-1-phenylethyl 6,6-dimethyl-3-[1-(trimethylsilyl)cyclobutanecarboxamido]-4,6-dihydropyrrolo[3,4-c]pyrazole-5(1H)-carboxylate]
- inhibition in vivo at 10 mg/kg [2]: ≥ 50%

Compound: CC1(C)c2[nH]nc(NC(=O)C3([Si](C)(C)C)CCC3)c2CN1C(=O)N[C@H](CO)c1ccccc1 [IV-114, (S)—N-(2-Hydroxy-1-phenylethyl)-6,6-dimethyl-3-[1-(trimethylsilyl)cyclobutanecarboxamido]-4,6-dihydropyrrolo[3,4-c]pyrazole-5(1H)-carboxamide]
- IC50 [3]: ≤ 500 nM

Compound: CC[Si](C)(C)C1(C(=O)Nc2n[nH]c3c2CN(C(=O)N[C@H](CO)c2ccccc2)C3(C)C)CCC1 [IV-117, (S)-3-[1-(Ethyldimethylsilyl)cyclobutanecarboxamido]-N-(2-hydroxy-1-phenylethyl)-6,6-dimethyl-4,6-dihydropyrrolo[3,4-c]pyrazole-5(1H)-carboxamide]
- IC50 [3]: ≤ 500 nM

Compound: CN(C(=O)N1Cc2c(NC(=O)C3([Si](C)(C)C)CCC3)n[nH]c2C1(C)C)[C@H](CO)c1ccccc1 [IV-119, (S)—N-(2-Hydroxy-1-phenylethyl)-N,6,6-trimethyl-3-[1-(trimethylsilyl)cyclobutanecarboxamido]-4,6-dihydropyrrolo[3,4-c]pyrazole-5(1H)-carboxamide]
- inhibition in vivo at 10 mg/kg [2]: ≥ 50%

Compound: CCOC[C@@H](NC(=O)N1Cc2c(NC(=O)C3([Si](C)(C)C)CCC3)n[nH]c2C1(C)C)c1ccccc1 [IV-139, (S)—N-(2-Ethoxy-1-phenylethyl)-6,6-dimethyl-3-[1-(trimethylsilyl)cyclobutanecarboxamido]-4,6-dihydropyrrolo[3,4-c]pyrazole-5(1H)-carboxamide]
- inhibition in vivo at 3 mg/kg [2]: ≥ 50%
- IC50 [1]: ≤ 500 nM

Compound: CC1(C)c2[nH]nc(NC(=O)C3([Si](C)(C)C)CCC3)c2CN1C(=O)N[C@H](CCCCO)c1ccccc1 [IV-291, (R)—N-(5-Hydroxy-1-phenylpentyl)-6,6-dimethyl-3-[1-(trimethylsilyl)cyclobutanecarboxamido]-4,6-dihydropyrrolo[3,4-c]pyrazole-5(1H)-carboxamide]
- IC50 [3]: ≤ 500 nM

Compound: CC1(C)c2[nH]nc(NC(=O)C3([Si](C)(C)C)CCC3)c2CN1C(=O)NCCO [IV-438, N-(2-Hydroxyethyl)-6,6-dimethyl-3-[1-(trimethylsilyl)cyclobutanecarboxamido]-4,6-dihydropyrrolo[3,4-c]pyrazole-5(1H)-carboxamide]
- IC50 [3]: ≤ 500 nM

Compound: C[C@@H](CO)NC(=O)N1Cc2c(NC(=O)C3([Si](C)(C)C)CCC3)n[nH]c2C1(C)C [IV-455, (S)—N-(1-Hydroxypropan-2-yl)-6,6-dimethyl-3-[1-(trimethylsilyl)cyclobutanecarboxamido]-4,6-dihydropyrrolo[3,4-c]pyrazole-5(1H)-carboxamide]
- IC50 [3]: ≤ 500 nM

Compound: CC(C)[C@@H](CO)NC(=O)N1Cc2c(NC(=O)C3([Si](C)(C)C)CCC3)n[nH]c2C1(C)C [IV-475, (S)—N-(1-Hydroxy-3-methylbutan-2-yl)-6,6-dimethyl-3-[1-(trimethylsilyl)cyclobutanecarboxamido]-4,6-dihydropyrrolo[3,4-c]pyrazole-5(1H)-carboxamide]
- IC50 [3]: ≤ 500 nM

Compound: CC1(C)c2[nH]nc(NC(=O)C3([Si](C)(C)C)CCC3)c2CN1C(=O)N[C@H](CO)C1CCCCC1 [IV-495, (S)—N-(1-Cyclohexyl-2-hydroxyethyl)-6,6-dimethyl-3-[1-(trimethylsilyl)cyclobutanecarboxamido]-4,6-dihydropyrrolo[3,4-c]pyrazole-5(1H)-carboxamide]
- IC50 [3]: ≤ 500 nM

Compound: CC1(C)c2[nH]nc(NC(=O)C3([Si](C)(C)C)CCC3)c2CN1C(=O)C(CO)c1ccccc1 (stereo not drawn) [IV-632, N-[5-(3-Hydroxy-2-phenylpropanoyl)-6,6-dimethyl-1,4,5,6-tetrahydropyrrolo[3,4-c]pyrazol-3-yl]-1-(trimethylsilyl)cyclobutanecarboxamide]
- inhibition in vivo at 3 mg/kg [2]: ≥ 50%

Compound: CO[C@@H](C(=O)N1Cc2c(NC(=O)C3([Si](C)(C)C)CCC3)n[nH]c2C1(C)C)c1ccccc1 [IV-1175, (R)—N-[5-(2-Methoxy-2-phenylacetyl)-6,6-dimethyl-1,4,5,6-tetrahydropyrrolo[3,4-c]pyrazol-3-yl]-1-(trimethylsilyl)cyclobutanecarboxamide]
- IC50 [1]: ≤ 500 nM

Compound: CC[Si](C)(C)C1(C(=O)Nc2n[nH]c3c2CN(C(=O)[C@H](OC)c2ccccc2)C3(C)C)CCC1 [IV-1178, (R)-1-(Ethyldimethylsilyl)-N-[5-(2-methoxy-2-phenylacetyl)-6,6-dimethyl-1,4,5,6-tetrahydropyrrolo[3,4-c]pyrazol-3-yl] cyclobutanecarboxamide]
- IC50 [1]: ≤ 500 nM

Compound: CC1(C)c2[nH]nc(NC(=O)C3([Si](C)(C)C)CCC3)c2CN1C(=O)[C@H](OC(F)F)c1ccccc1 [IV-1180, (R)—N-{5-[2-(Difluoromethoxy)-2-phenylacetyl]-6,6-dimethyl-1,4,5,6-tetrahydropyrrolo[3,4-c]pyrazol-3-yl}-1-(trimethylsilyl)cyclobutanecarboxamide]
- IC50 [1]: ≤ 500 nM

Compound: CCO[C@@H](C(=O)N1Cc2c(NC(=O)C3([Si](C)(C)C)CCC3)n[nH]c2C1(C)C)c1ccccc1 [IV-1188, (R)—N-[5-(2-Ethoxy-2-phenylacetyl)-6,6-dimethyl-1,4,5,6-tetrahydropyrrolo[3,4-c]pyrazol-3-yl]-1-(trimethylsilyl)cyclobutanecarboxamide]
- IC50 [1]: ≤ 500 nM
